Here are results for 13 compounds from patent US20220409629A1, “BENZODIAZEPINE DERIVATIVES FOR TREATING A RESPIRATORY SYNCYTIAL VIRUS (RSV) INFECTION” (priority 2019, published 2022).

One data set relates to RSV A2. Nature of the data set: RSV plaque reduction assay. The class given is cell-based, respiratory syncytial virus (RSV). Particulars: human respiratory syncytial virus, HepG2; Hep-G2 cells, RSV A2, mean of at least two experiments. As for the experimental part: Compounds were subjected to RSV plaque reduction assays according to the following protocol.
Hep-G2 cells (ECACC, 85011430) were passaged in flasks and seeded in 24-well plates in DMEM containing antibiotics and supplemented with 10% FBS. During inoculation and subsequent incubation, cells were cultured in DMEM containing 2% FBS. 100 plaque forming unit/well of RSV (RSV A2 ECACC, 0709161v) was mixed with eight serial dilutions of compound. Subsequently, 100 μL of the virus/compound mixtures was added to confluent Hep-G2 cell monolayers. The cells and virus/compound mixtures were incubated at 37° C. in a humidified 5% CO2 incubator for 2 h prior to removal of the inoculum and addition of 1 mL of overlay (DMEM containing 2% FBS and 0.8% CMC) containing compound dilutions. The cells and were incubated at 37° C. in a humidified 5% CO2 incubator for 2 days.
Cells were washed with PBS before adding 75/25% v/v EtOH/MeOH, for 3 min. Fixative was removed and plates were washed with PBS. A pre-titrated amount of the primary antibody was added in 200 μL PBS/2% milk powder, and plates incubated for 90 min at 37° C. The plates were washed 3 times with PBS/0.05% Tween20 before addition of rabbit anti-goat horse radish peroxidase in 200 μL PBS/2% milk powder, and incubated for 1 h at 37° C. Following three wash steps with PBS/0.05% Tween20, 200 μL ready-to-use TrueBlue was added and plates were incubated at rt for 10-15 min before washing with water. After removal of water, plates were air-dried in the dark.
Plates were scanned and analysed using the Immunospot S6 Macro analyser, which is equipped with BioSpot analysis software for counting immunostained plaques (virospots). Plaque counts were used to calculate % infection relative to the mean of the plaque count in the virus control wells for RSV. The EC50 value was calculated as 50% reduction in signal, respectively, by interpolation of inhibition curves fitted with a 4-parameter nonlinear regression with a variable slope in Dotmatics. Plaque EC50 and cell toxicity CC50 values are a mean of at least two experiments and figures are rounded to whole units.
Background: In a plaque reduction assay, fewer plaques than in the control indicate reduced infectivity or spread.

The next data set can be described thus: Cell cytotoxicity CC50. The class given is cell-based. To be noted: human; mean of at least two experiments.
Data set [1] in a line: Liver microsomal stability, rat. The class given is in vitro ADME. Particulars: pH 7.4; rat liver microsomes, 0.5 mg/mL protein, 1 μM compound, NADPH; >80% remaining at 45 min denoted >140; read-out: Liver Microsomal Stability: t1/2 (min); rat. The method, then: (§1) Compounds were subjected to the following assays to investigate liver microsomal stability, permeability and plasma protein binding.
(§2) Pooled liver microsomes were purchased from a reputable commercial supplier and stored at −80° C. prior to use. Microsomes (final protein concentration 0.5 mg/mL), 0.1 M phosphate buffer pH 7.4 and test compound (final substrate concentration 1 μM; final DMSO concentration 0.25%) were pre-incubated at 37° C. prior to the addition of NADPH (final concentration 1 mM) to initiate the reaction. The final incubation volume was 50 μL. A control incubation was included for each compound tested where 0.1 M phosphate buffer pH 7.4 was added instead of NADPH (minus NADPH). Two control compounds were included with each species. All incubations were performed singularly for each test compound. Each compound was incubated for 0, 5, 15, 30 and 45 min. The control (minus NADPH) was incubated for 45 min only. The reactions were stopped by transferring incubate into acetonitrile at the appropriate time points, in a 1:3 ratio. The termination plates are centrifuged at 3,000 rpm for 20 min at 4° C. to precipitate the protein. Following protein precipitation, the sample supernatants were combined in cassettes of up to 4 compounds, internal standard added, and samples analysed by LC-MS/MS. From a plot of ln peak area ratio (compound peak area/internal standard peak area) against time, the gradient of the line was determined. Subsequently, half-life (t1/2) and intrinsic clearance (CLint) were calculated.
Background: Liver microsomes are vesicles of endoplasmic reticulum, rich in cytochrome P450 enzymes.

Data set [2] is described as follows: Liver microsomal stability, dog. In kind it is in vitro ADME. To be noted: pH 7.4; dog liver microsomes, 0.5 mg/mL protein, 1 μM compound, NADPH; >80% remaining at 45 min denoted >140; read-out: Liver Microsomal Stability: t1/2 (min); dog. As for the experimental part:
as §1, §2

Data set [3] is described as follows: Liver microsomal stability, human. In kind it is in vitro ADME. Particulars: pH 7.4; human liver microsomes, 0.5 mg/mL protein, 1 μM compound, NADPH; >80% remaining at 45 min denoted >140; read-out: Liver Microsomal Stability: t1/2 (min); human. As for the experimental part: as §1, §2

By EC50 is commonly meant the concentration that produces a half-maximal response. Read a low EC50 as greater potency. The term CC50 denotes the concentration that lowers cell viability or growth by half. Lower therefore signals greater toxicity to the cells.

`CCn1ncc(C(=O)N[C@H]2N=C(c3ccccc3)c3ccccc3NC2=O)c1-c1ccc(NC)nc1F` [Example 1, 1-Ethyl-5-[2-fluoro-6-(methylamino)pyridin-3-yl]-N-[(3S)-2-oxo-5-phenyl-1,3-dihydro-1,4-benzodiazepin-3-yl]pyrazole-4-carboxamide] returned an EC50 in the data set with RSV A2 of 91 nM. This compound showed a CC50 in “Cell cytotoxicity CC50” of over 25000 nM. The half-life in data set [1] turned out to be 24.4 min; in data set [2], 11.1 min; in data set [3], 48.1 min.
The corresponding values for `O=C(N[C@H]1N=C(c2ccccc2)c2ccccc2NC1=O)c1cnn(C2CCOCC2)c1-c1cc(C2CC2)cnc1F` [Example 50, 5-(5-Cyclopropyl-2-fluoropyridin-3-yl)-1-(oxan-4-yl)-N-[(3S)-2-oxo-5-phenyl-1,3-dihydro-1,4-benzodiazepin-3-yl]pyrazole-4-carboxamide] are 81 nM, over 25000 nM, 44.2 min, 163 min and 94.3 min.
For `CN1CCC(n2ncc(C(=O)N[C@H]3N=C(c4ccccc4)c4cccc(F)c4NC3=O)c2-c2ccc(NC3CC3)nc2F)CC1` [Example 57, 5-[6-(Cyclopropylamino)-2-fluoropyridin-3-yl]-N-[(3S)-9-fluoro-2-oxo-5-phenyl-1,3-dihydro-1,4-benzodiazepin-3-yl]-1-(1-methylpiperidin-4-yl)pyrazole-4-carboxamide], in that order: 84 nM, over 9410 nM, 116 min, 175 min and 84.7 min.
For `O=C(N[C@H]1N=C(c2ccccc2)c2ccccc2NC1=O)c1cnn(C2CC2)c1-c1ccc(NC2CC2)nc1F` [Example 15, 1-Cyclopropyl-5-[6-(cyclopropylamino)-2-fluoropyridin-3-yl]-N-[(3S)-2-oxo-5-phenyl-1,3-dihydro-1,4-benzodiazepin-3-yl]pyrazole-4-carboxamide], in that order: 51 nM, over 25000 nM, 69.8 min, 57.7 min and 72.3 min.
In the data set on RSV A2, `O=C(N[C@H]1N=C(c2ccccc2)c2cccc(F)c2NC1=O)c1cn(C2CCC(F)(F)CC2)nc1-c1ccc(NC2CC2)nc1F` [Example 35, 3-[6-(Cyclopropylamino)-2-fluoropyridin-3-yl]-1-(4,4-difluorocyclohexyl)-N-[(3S)-9-fluoro-2-oxo-5-phenyl-1,3-dihydro-1,4-benzodiazepin-3-yl]pyrazole-4-carboxamide] had an EC50 of 60 nM. The CC50 in “Cell cytotoxicity CC50” is over 25000 nM. The half-life in data set [1] stood at 181 min; in data set [2], 90.9 min; in data set [3], 164 min.
Take `CCNc1ccc(-c2c(C(=O)N[C@H]3N=C(c4ccccc4)c4cccc(F)c4NC3=O)cnn2C2COC2)c(F)n1` [Example 40, 5-[6-(Ethylamino)-2-fluoropyridin-3-yl]-N-[(3S)-9-fluoro-2-oxo-5-phenyl-1,3-dihydro-1,4-benzodiazepin-3-yl]-1-(oxetan-3-yl)pyrazole-4-carboxamide]: the EC50 with RSV A2 amounted to 67 nM. The compound also registered a CC50 in “Cell cytotoxicity CC50” of over 25000 nM. Further, the half-life in data set [1] amounted to 81.1 min; in data set [2] it was 72.9 min; in data set [3], 49.6 min.
As to `CC(C)n1ncc(C(=O)N[C@H]2N=C(c3ccccc3)c3ccccc3NC2=O)c1-c1ccc(NC2CC2)nc1F` [Example 16, 5-[6-(Cyclopropylamino)-2-fluoropyridin-3-yl]-N-[(3S)-2-oxo-5-phenyl-1,3-dihydro-1,4-benzodiazepin-3-yl]-1-propan-2-ylpyrazole-4-carboxamide], in the data set with RSV A2, a half-maximal effect (EC50) was put at 50 nM. Further, the CC50 in the data set “Cell cytotoxicity CC50” is over 25000 nM. The half-life worked out at 72.7 min in data set [1], 22.2 min in data set [2] and 50.6 min in data set [3].
With `CCn1ncc(C(=O)N[C@H]2N=C(c3ccccc3)c3cccc(F)c3NC2=O)c1-c1cc(C2CC2)cnc1F` [Example 48, 5-(5-Cyclopropyl-2-fluoropyridin-3-yl)-1-ethyl-N-[(3S)-9-fluoro-2-oxo-5-phenyl-1,3-dihydro-1,4-benzodiazepin-3-yl]pyrazole-4-carboxamide], the midpoint of the response with RSV A2, the EC50, lay at 92 nM. Besides, in “Cell cytotoxicity CC50”, the CC50 was over 25000 nM. Further, the half-life in data set [1] was 118 min; in data set [2], over 140 min; in data set [3], 355 min.
The corresponding values for `CCOc1nn(CC)c(-c2ccccc2F)c1C(=O)N[C@H]1N=C(c2ccccc2)c2cccc(F)c2NC1=O` [Example 55, 3-Ethoxy-1-ethyl-N-[(3S)-9-fluoro-2-oxo-5-phenyl-1,3-dihydro-1,4-benzodiazepin-3-yl]-5-(2-fluorophenyl)pyrazole-4-carboxamide] are 33 nM, over 25000 nM, 26.5 min, 39 min and 41.3 min.
The corresponding values for `CCc1ccc(-c2c(C(=O)N[C@H]3N=C(c4ccccc4)c4cccc(F)c4NC3=O)cnn2C2CCOCC2)c(F)c1` [Example 47, 5-(4-Ethyl-2-fluorophenyl)-1-(oxan-4-yl)-N-[(3S)-9-fluoro-2-oxo-5-phenyl-1,3-dihydro-1,4-benzodiazepin-3-yl]pyrazole-4-carboxamide] are 30 nM, over 25000 nM, 33.1 min, 81.4 min and 105 min.
For `CCCNc1ccc(-c2nn(CC)cc2C(=O)N[C@H]2N=C(c3ccccc3)c3ccccc3NC2=O)c(F)n1` [Example 27, 1-Ethyl-3-[2-fluoro-6-(propylamino)pyridin-3-yl]-N-[(3S)-2-oxo-5-phenyl-1,3-dihydro-1,4-benzodiazepin-3-yl]pyrazole-4-carboxamide], in that order: 57 nM, over 25000 nM, 23.9 min, 12.6 min and 43.1 min.
In the case of `O=C(N[C@H]1N=C(c2ccccc2)c2cccc(F)c2NC1=O)c1cnn(C2CCOCC2)c1-c1cc(C2CC2)cnc1F` [Example 51, 5-(5-Cyclopropyl-2-fluoropyridin-3-yl)-N-[(3S)-9-fluoro-2-oxo-5-phenyl-1,3-dihydro-1,4-benzodiazepin-3-yl]-1-(oxan-4-yl)pyrazole-4-carboxamide], in the data set with RSV A2, the midpoint of the response, the EC50, lay at 53 nM. The same compound displayed a CC50 in the data set “Cell cytotoxicity CC50” of over 7790 nM. The values for the half-life in data set [1], in data set [2] and in data set [3] were 92.8 min, 212 min and 171 min, respectively.
The corresponding values for `CCNc1cnc(-c2c(C(=O)N[C@H]3N=C(c4ccccc4)c4ccccc4NC3=O)cnn2CC)c(F)c1` [Example 39, 1-Ethyl-5-[5-(ethylamino)-3-fluoropyridin-2-yl]-N-[(3S)-2-oxo-5-phenyl-1,3-dihydro-1,4-benzodiazepin-3-yl]pyrazole-4-carboxamide] are 62 nM, over 25000 nM, 21.4 min, 45.7 min and 62 min.
